From US6737383B1, “Herbicidal oxadiazolidines” (priority 1999, dated 2004)

Legend:
surinam grass = assay: Test B pre/postemergence surinam grass; format: in vivo, Brachiaria decumbens
Summary of the method: (§1)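 Response is a visual 0-to-10 score relative to untreated plants, where 0 means no effect and 10 means complete control, taken twelve to sixteen days after application. Treatments went onto soil at planting and onto foliage of 1- to 4-leaf plants, using a surfactant-containing non-phytotoxic solvent.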

wild oat = assay: Test B pre/postemergence wild oat; format: in vivo, Avena fatua; conditions: for Plant response rating, Wild oats: scale of 0 to 10 where 0 is no effect and 10 is complete control
Summary of the method: as §1

corn = assay: Test B pre/postemergence corn; format: in vivo, Zea mays
Summary of the method: as §1

purple nutsedge = assay: Test B pre/postemergence purple nutsedge; format: in vivo, Cyperus rotundus; conditions: for Plant response rating, Nutsedge: scale of 0 to 10 where 0 is no effect and 10 is complete control
Summary of the method: as §1

giant foxtail = assay: Test B pre/postemergence giant foxtail; format: in vivo, Setaria faberii
Summary of the method: as §1

rape = assay: Test B pre/postemergence rape; format: in vivo, Brassica napus; conditions: for Plant response rating, Rape: scale of 0 to 10 where 0 is no effect and 10 is complete control
Summary of the method: as §1

pigweed = assay: Test B pre/postemergence pigweed; format: in vivo, Amaranthus retroflexus; conditions: for Plant response rating, Redroot pigweed: scale of 0 to 10 where 0 is no effect and 10 is complete control
Summary of the method: as §1

smallflower flatsedge = assay: Test B flood test smallflower flatsedge; format: in vivo, Cyperus difformis
Summary of the method: (§2)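 Each value is a visual injury score relative to controls, with 10 meaning complete control and 0 no effect. Evaluation took place twelve to sixteen days after the 2-leaf-stage plants were treated and kept in the greenhouse.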

cocklebur = assay: Test B pre/postemergence cocklebur; format: in vivo, Xanthium strumarium
Summary of the method: as §1

wheat = assay: Test B pre/postemergence wheat; format: in vivo, Triticum aestivum; conditions: for Plant response rating, Wheat: scale of 0 to 10 where 0 is no effect and 10 is complete control
Summary of the method: as §1

soybean = assay: Test B pre/postemergence soybean; format: in vivo, Glycine max; conditions: for Plant response rating, Soybean: scale of 0 to 10 where 0 is no effect and 10 is complete control
Summary of the method: as §1

sugar beet = assay: Test B pre/postemergence sugar beet; format: in vivo, Beta vulgaris; conditions: for Plant response rating, Sugarbeets: scale of 0 to 10 where 0 is no effect and 10 is complete control
Summary of the method: as §1

rice = assay: Test B flood test rice; format: in vivo, Oryza sativa
Summary of the method: as §2

velvetleaf = assay: Test B pre/postemergence velvetleaf; format: in vivo, Abutilon theophrasti; conditions: for Plant response rating, Velvetleaf: scale of 0 to 10 where 0 is no effect and 10 is complete control
Summary of the method: as §1

duck salad = assay: Test B flood test duck salad; format: in vivo, Heteranthera limosa
Summary of the method: as §2

[1] = Postemergence, Rate 500 g/ha, scale of 0 to 10 where 0 is no effect and 10 is complete control
[2] = Preemergence, Rate 62 g/ha, scale of 0 to 10 where 0 is no effect and 10 is complete control
[3] = Preemergence, Rate 125 g/ha, scale of 0 to 10 where 0 is no effect and 10 is complete control
[4] = Preemergence, Rate 250 g/ha, scale 0 to 10, 0 is no effect, 10 is complete control
[5] = Preemergence, Rate 500 g/ha, scale 0 to 10, 0 is no effect, 10 is complete control
[6] = Rate 62 g/ha, Postemergence, scale 0 to 10, 0 no effect, 10 complete control
[7] = Rate 125 g/ha, Postemergence, scale 0 to 10, 0 is no effect, 10 is complete control
[8] = Postemergence, Rate 250 g/ha, scale 0 to 10
[9] = Rate 62 g/ha, flood test species, Pre-emergence, visual evaluation after twelve to sixteen days
[10] = Rate 125 g/ha, under heading Pre-emergence, flood test species, visual evaluation after twelve to sixteen days
[11] = Rate 250 g/ha, Pre-emergence (flood test species), scale 0 to 10, 0 is no effect, 10 is complete control
[12] = Rate 500 g/ha, Pre-emergence, flood test species, scale 0 to 10 (0 no effect, 10 complete control)

## CC(C)N(C(=O)n1oc(=O)n(C(C)CCl)c1=O)c1ccc(Cl)cc1 (stereo not shown) [Compound 456]
Surinam grass; Postemergence, Rate 250 g/ha, scale 0 to 10, 0 no effect, 10 complete control
  B. signalgrass plant response rating: 0
Surinam grass; [1]
  B. signalgrass plant response rating: 2
Surinam grass; [2]
  Plant response rating, B. signalgrass: 0
Surinam grass; [3]
  Plant response rating, B. signalgrass: 0
Surinam grass; [4]
  B. signalgrass plant response rating: 0
Surinam grass; [5]
  B. signalgrass plant response rating: 2
Surinam grass; [6]
  B. signalgrass plant response rating: 0
Surinam grass; [7]
  B. signalgrass plant response rating: 0
Wild oat; [8]
  Wild oats plant response rating: 0
Wild oat; Preemergence, Rate 62 g/ha
  Plant response rating, Wild oats: 0
Wild oat; Preemergence, Rate 125 g/ha
  Plant response rating, Wild oats: 0
Wild oat; [4]
  Wild oats plant response rating: 2
Wild oat; [5]
  Wild oats plant response rating: 3
Wild oat; [6]
  Wild oats plant response rating: 0
Wild oat; [7]
  Wild oats plant response rating: 0
corn; [8]
  Corn plant response rating: 0
corn; [1]
  Corn plant response rating: 0
corn; [2]
  Plant response rating, Corn: 0
corn; [3]
  Plant response rating, Corn: 0
corn; [4]
  Corn plant response rating: 0
corn; [5]
  Corn plant response rating: 0
corn; [6]
  Corn plant response rating: 0
corn; [7]
  Corn plant response rating: 0
Purple nutsedge; [8]
  Nutsedge plant response rating: 0
Purple nutsedge; Preemergence, Rate 62 g/ha
  Plant response rating, Nutsedge: 0
Purple nutsedge; Preemergence, Rate 125 g/ha
  Plant response rating, Nutsedge: 0
Purple nutsedge; [4]
  Nutsedge plant response rating: 0
Purple nutsedge; [5]
  Nutsedge plant response rating: 0
Purple nutsedge; [6]
  Nutsedge plant response rating: 0
Purple nutsedge; [7]
  Nutsedge plant response rating: 0
Giant foxtail; [8]
  Giant foxtail plant response rating: 3
Giant foxtail; [1]
  Giant foxtail plant response rating: 8
Giant foxtail; [2]
  Plant response rating, Giant foxtail: 5
Giant foxtail; [3]
  Plant response rating, Giant foxtail: 10
Giant foxtail; [4]
  Giant foxtail plant response rating: 10
Giant foxtail; [5]
  Giant foxtail plant response rating: 10
Giant foxtail; [6]
  Giant foxtail plant response rating: 2
Giant foxtail; [7]
  Giant foxtail plant response rating: 2
rape; [8]
  Rape plant response rating: 0
rape; Preemergence, Rate 62 g/ha
  Plant response rating, Rape: 0
rape; Preemergence, Rate 125 g/ha
  Plant response rating, Rape: 0
rape; [4]
  Rape plant response rating: 0
rape; [5]
  Rape plant response rating: 0
rape; [6]
  Rape plant response rating: 0
rape; [7]
  Rape plant response rating: 0
pigweed; [8]
  Redroot pigweed plant response rating: 3
pigweed; Preemergence, Rate 62 g/ha
  Plant response rating, Redroot pigweed: 0
pigweed; Preemergence, Rate 125 g/ha
  Plant response rating, Redroot pigweed: 2
pigweed; [4]
  Redroot pigweed plant response rating: 3
pigweed; [5]
  Redroot pigweed plant response rating: 5
pigweed; [6]
  Redroot pigweed plant response rating: 0
pigweed; [7]
  Redroot pigweed plant response rating: 0
Smallflower flatsedge; [9]
  Plant response rating, S. Flatsedge (0 to 10 scale, 0 is no effect, 10 is complete control): 0
Smallflower flatsedge; [10]
  S. Flatsedge plant response rating (0 to 10 scale, 0 is no effect, 10 is complete control): 0
Smallflower flatsedge; [11]
  S. Flatsedge plant response rating: 0
Smallflower flatsedge; [12]
  S. Flatsedge plant response rating: 0
cocklebur; [8]
  Cocklebur plant response rating: 0
cocklebur; [1]
  Cocklebur plant response rating: 2
cocklebur; [2]
  Plant response rating, Cocklebur: 0
cocklebur; [3]
  Plant response rating, Cocklebur: 0
cocklebur; [4]
  Cocklebur plant response rating: 0
cocklebur; [5]
  Cocklebur plant response rating: 0
cocklebur; [6]
  Cocklebur plant response rating: 0
cocklebur; [7]
  Cocklebur plant response rating: 0
wheat; [8]
  Wheat plant response rating: 0
wheat; Preemergence, Rate 62 g/ha
  Plant response rating, Wheat: 0
wheat; Preemergence, Rate 125 g/ha
  Plant response rating, Wheat: 0
wheat; [4]
  Wheat plant response rating: 0
wheat; [5]
  Wheat plant response rating: 0
wheat; [6]
  Wheat plant response rating: 0
wheat; [7]
  Wheat plant response rating: 0
soybean; [8]
  Soybean plant response rating: 2
soybean; Preemergence, Rate 62 g/ha
  Plant response rating, Soybean: 0
soybean; Preemergence, Rate 125 g/ha
  Plant response rating, Soybean: 0
soybean; [4]
  Soybean plant response rating: 0
soybean; [5]
  Soybean plant response rating: 0
soybean; [6]
  Soybean plant response rating: 1
soybean; [7]
  Soybean plant response rating: 3
Sugar beet; [8]
  Sugarbeets plant response rating: 0
Sugar beet; Preemergence, Rate 62 g/ha
  Plant response rating, Sugarbeets: 0
Sugar beet; Preemergence, Rate 125 g/ha
  Plant response rating, Sugarbeets: 2
Sugar beet; [4]
  Sugarbeets plant response rating: 2
Sugar beet; [5]
  Sugarbeets plant response rating: 3
Sugar beet; [6]
  Sugarbeets plant response rating: 0
Sugar beet; [7]
  Sugarbeets plant response rating: 0
rice; [9]
  Plant response rating, Rice (0 to 10 scale, 0 is no effect, 10 is complete control): 0
rice; [10]
  Rice plant response rating (0 to 10 scale, 0 is no effect, 10 is complete control): 0
rice; [11]
  Rice plant response rating: 0
rice; [12]
  Rice plant response rating: 0
velvetleaf; [8]
  Velvetleaf plant response rating: 0
velvetleaf; Preemergence, Rate 62 g/ha
  Plant response rating, Velvetleaf: 0
velvetleaf; Preemergence, Rate 125 g/ha
  Plant response rating, Velvetleaf: 0
velvetleaf; [4]
  Velvetleaf plant response rating: 1
velvetleaf; [5]
  Velvetleaf plant response rating: 2
velvetleaf; [6]
  Velvetleaf plant response rating: 0
velvetleaf; [7]
  Velvetleaf plant response rating: 0
Duck salad; [9]
  Plant response rating, Ducksalad (0 to 10 scale, 0 is no effect, 10 is complete control): 0
Duck salad; [10]
  Ducksalad plant response rating (0 to 10 scale, 0 is no effect, 10 is complete control): 0
Duck salad; [11]
  Ducksalad plant response rating: 0
Duck salad; [12]
  Ducksalad plant response rating: 0
